Reference: ChEMBL document CHEMBL1123796, “New antitumor agents containing the anthracene nucleus” (1987)

Experiments:
Format in all cases: functional
WiDr = test: Tested in vitro for inhibitory activity of human tumor cell growth against WIDR colon tumor, by using clonogenic assays.; settings: read-out: ID50 (the source's name)
[1] = In vitro inhibition of human UACC-66 ovarian tumor cell line growth.; settings: read-out: ID50 (the source's name)
[2] = Tested in vitro for inhibitory activity of human tumor cell growth against HEC 1A endometrial tumor, by using clonogenic assays.; settings: read-out: ID50 (the source's name)
RPMI-8226 [3] = test: In vitro inhibition of human 8226 myeloma tumor cell line growth.; settings: read-out: ID50 (the source's name)
P388 [4] = test: Antileukemic activity against P-388 in mice at a dose of 44 mg/kg administered intraperitoneally after 3 day treatment; settings: Mus musculus, P388, ip, 72 h, route intraperitoneal
P388 [5] = test: Antileukemic activity against P-388/ADR (P-388 cells resistant to adriamycin) n mice at a dose of 67 mg/kg administered intraperitoneally after 3 day treatment(Trial 2); settings: Mus musculus, P388, ip, 72 h, route intraperitoneal
P388 [6] = test: Antileukemic activity against P-388 in mice at a dose of 67 mg/kg administered intraperitoneally after 3 day treatment; settings: Mus musculus, P388, ip, 72 h, route intraperitoneal
P388 [7] = test: Antileukemic activity against P-388 in mice at a dose of 100 mg/kg administered intraperitoneally after 3 day treatment(Trial 2); settings: Mus musculus, P388, ip, 72 h, route intraperitoneal
P388 [8] = test: Antileukemic activity against P-388 in mice at a dose of 30 mg/kg administered intraperitoneally after 3 day treatment(Trial 2); settings: Mus musculus, P388, ip, 72 h, route intraperitoneal
P388 [9] = test: Antileukemic activity against P-388 in mice at a dose of 67 mg/kg administered intraperitoneally after 3 day treatment(Trial 2); settings: Mus musculus, P388, ip, 72 h, route intraperitoneal
P388 [10] = test: Antileukemic activity against P-388 in mice at a dose of 44 mg/kg administered intraperitoneally after 3 day treatment(Trial 2); settings: Mus musculus, P388, ip, 72 h, route intraperitoneal
P388 [11] = test: Antileukemic activity against P-388 in mice at a dose of 100 mg/kg administered intraperitoneally after 3 day treatment; settings: Mus musculus, P388, ip, 72 h, route intraperitoneal
P388 [12] = test: Antileukemic activity against P-388/ADR (P-388 cells resistant to adriamycin) in mice at a dose of 100 mg/kg administered intraperitoneally after 3 day treatment(Trial 2); settings: Mus musculus, P388, ip, 72 h, route intraperitoneal
P388 [13] = test: Antileukemic activity against P-388/ADR (P-388 cells resistant to adriamycin) in mice at a dose of 44 mg/kg administered intraperitoneally after 3 day treatment(Trial 2); settings: Mus musculus, P388, ip, 72 h, route intraperitoneal
P388 [14] = test: Antileukemic activity against P-388/ADR (P-388 cells resistant to adriamycin) in mice at a dose of 30 mg/kg administered intraperitoneally after 3 day treatment(Trial 2); settings: Mus musculus, P388, ip, 72 h, route intraperitoneal
P388 [15] = test: Antileukemic activity against P-388 in mice at a dose of 125 mg/kg administered intraperitoneally after 3 day treatment; settings: Mus musculus, P388, ip, 72 h, route intraperitoneal
RPMI-8226 [16] = test: Effect on RNA synthesis was determined by incorporation of radioligand into 8226 human myeloma cells at a concentration of 0.1 ug/mL
L1210 [17] = test: Effect on RNA synthesis was determined by incorporation of radioligand into L1210 murine leukemia at a concentration of 10 ug/mL (*: >1 log cell kill); settings: Mus musculus
L1210 [18] = test: Effect on protein synthesis was determined by incorporation of radioligand into L1210 murine leukemia at a concentration of 0.1 ug/mL; settings: Mus musculus
RPMI-8226 [19] = test: Effect on protein synthesis was determined by incorporation of radioligand into 8226 human myeloma cells at a concentration of 0.1 ug/mL
L1210 [20] = test: Effect on RNA synthesis was determined by incorporation of radioligand into L1210 murine leukemia at a concentration of 0.01 ug/mL; settings: Mus musculus
L1210 [21] = test: Effect on DNA synthesis was determined by incorporation of radioligand into L1210 murine leukemia at a concentration of 0.1 ug/mL; settings: Mus musculus
L1210 [22] = test: Effect on RNA synthesis was determined by incorporation of radioligand into L1210 murine leukemia at a concentration of 1 ug/mL. (*: >50% cell kill); settings: Mus musculus
RPMI-8226 [23] = test: Effect on DNA synthesis was determined by incorporation of radioligand into 8226 human myeloma cells at a concentration of 0.1 ug/mL
L1210 [24] = test: Effect on DNA synthesis was determined by incorporation of radioligand into L1210 murine leukemia at a concentration of 10 ug/mL (*: >1 log cell kill); settings: Mus musculus
L1210 [25] = test: Effect on protein synthesis was determined by incorporation of radioligand into L1210 murine leukemia at a concentration of 1 ug/mL. (*: >50% cell kill); settings: Mus musculus
RPMI-8226 [26] = test: Effect on DNA synthesis was determined by incorporation of radioligand into 8226 human myeloma cells at a concentration of 0.01 ug/mL
RPMI-8226 [27] = test: Effect on protein synthesis was determined by incorporation of radioligand into 8226 human myeloma cells at a concentration of 10 ug/mL (*: >1 log cell kill)
L1210 [28] = test: Effect on protein synthesis was determined by incorporation of radioligand into L1210 murine leukemia at a concentration of 10 ug/mL (*: >1 log cell kill); settings: Mus musculus
RPMI-8226 [29] = test: Effect on protein synthesis was determined by incorporation of radioligand into 8226 human myeloma cells at a concentration of 1 ug/mL. (*: >50% cell kill)
L1210 [30] = test: Effect on RNA synthesis was determined by incorporation of radioligand into L1210 murine leukemia at a concentration of 0.1 ug/mL; settings: Mus musculus
L1210 [31] = test: Effect on protein synthesis was determined by incorporation of radioligand into L1210 murine leukemia at a concentration of 0.01 ug/mL; settings: Mus musculus
RPMI-8226 [32] = test: Effect on RNA synthesis was determined by incorporation of radioligand into 8226 human myeloma cells at a concentration of 1 ug/mL. (*: >50% cell kill)
RPMI-8226 [33] = test: Effect on RNA synthesis was determined by incorporation of radioligand into 8226 human myeloma cells at a concentration of 10 ug/mL (*: >1 log cell kill)
RPMI-8226 [34] = test: Effect on protein synthesis was determined by incorporation of radioligand into 8226 human myeloma cells at a concentration of 0.01 ug/mL
L1210 [35] = test: Effect on DNA synthesis was determined by incorporation of radioligand into L1210 murine leukemia at a concentration of 1 ug/mL. (*: >50% cell kill); settings: Mus musculus
RPMI-8226 [36] = test: Effect on DNA synthesis was determined by incorporation of radioligand into 8226 human myeloma cells at a concentration of 10 ug/mL (*: >1 log cell kill)
RPMI-8226 [37] = test: Effect on DNA synthesis was determined by incorporation of radioligand into 8226 human myeloma cells at a concentration of 1 ug/mL. (*: >50% cell kill)
L1210 [38] = test: Effect on DNA synthesis was determined by incorporation of radioligand into L1210 murine leukemia at a concentration of 0.01 ug/mL; settings: Mus musculus
RPMI-8226 [39] = test: Effect on RNA synthesis was determined by incorporation of radioligand into 8226 human myeloma cells at a concentration of 0.01 ug/mL

In the case of `NCCN(CCO)Cc1c2ccccc2c(CN(CCN)CCO)c2ccccc12`, the IC50 (WiDr) is reported as 5.04 µM and the IC50 [1] is reported as 5.76 µM.
`c1ccc2c(CC3=NCCN3)c3ccccc3c(CC3=NCCN3)c2c1` gave an IC50 [2] of 5.6 µM and an IC50 [1] of 4.36 µM.
Compound `CN(C)CCCNCc1c2ccccc2c(CNCCCN(C)C)c2ccccc12` has an IC50 [2] of 56.8 µM and an IC50 (RPMI-8226 [3]) of 11 µM.
Compound `CCN1CCCC(NCc2c3ccccc3c(CNC3CCCN(CC)C3)c3ccccc23)C1` (configuration not stated) has an IC50 (WiDr) of 5.63 µM and an IC50 (RPMI-8226 [3]) of 0.04 µM.
With `c1ccc2c(CNCCN3CCOCC3)c3ccccc3c(CNCCN3CCOCC3)c2c1` the ILS at 44 mg/kg (P388 [4]) was 28%, the ILS at 67 mg/kg (P388 [5]) was 15% and the ILS at 67 mg/kg (P388 [6]) was 33%. For the same compound, the ILS at 100 mg/kg (P388 [7]) was 9%, the ILS at 30 mg/kg (P388 [8]) was 4% and the ILS at 67 mg/kg (P388 [9]) was 9%. The ILS at 44 mg/kg (P388 [10]) was -5%, the IC50 (WiDr) was 0.02 µM and the IC50 [1] was 0.03 µM. The ILS at 100 mg/kg (P388 [11]) was -34%, the ILS at 100 mg/kg (P388 [12]) was 40% and the ILS at 44 mg/kg (P388 [13]) was 15%. It also gave an ILS at 30 mg/kg (P388 [14]) of 5%, an ILS at 125 mg/kg (P388 [15]) of -81% and an IC50 (RPMI-8226 [3]) of 0.02 µM.
In the case of `OCCCCCNCc1c2ccccc2c(CNCCCCCO)c2ccccc12`, the IC50 (WiDr) is reported as 13.4 µM, the IC50 [1] is reported as 24.7 µM and the IC50 (RPMI-8226 [3]) is reported as 4.67 µM.
`OCCOCCNCc1c2ccccc2c(CNCCOCCO)c2ccccc12` gave an IC50 (WiDr) of 2.91 µM, an IC50 [1] of 6.57 µM and an IC50 (RPMI-8226 [3]) of 0.23 µM.
`CN1CCN(Cc2c3ccccc3c(CN3CCN(C)CC3)c3ccccc23)CC1` showed an IC50 (WiDr) of 10.4 µM and an IC50 (RPMI-8226 [3]) of 0.1 µM.
Compound `CN(C)CCN(C)Cc1c2ccccc2c(CN(C)CCN(C)C)c2ccccc12` has an IC50 (WiDr) of 0.14 µM, an IC50 [1] of 0.7 µM and an IC50 (RPMI-8226 [3]) of 0.29 µM.
`OCCNCc1c2ccccc2c(CNCCO)c2ccccc12` showed an IC50 [1] of 74.9 µM and an IC50 (RPMI-8226 [3]) of 27.8 µM.
`NCCNCc1c2ccccc2c(CNCCN)c2ccccc12` gave an IC50 (WiDr) of 0.42 µM, an IC50 [1] of 4.14 µM and an IC50 (RPMI-8226 [3]) of 692 µM.
`CC(C)N(CCNCc1c2ccccc2c(CNCCN(C(C)C)C(C)C)c2ccccc12)C(C)C` showed an IC50 (WiDr) of 15.5 µM and an IC50 (RPMI-8226 [3]) of 7.63 µM.
Compound `C(=N\Nc1nccs1)/c1c2ccccc2c(/C=N/Nc2nccs2)c2ccccc12` has an IC50 [2] of 200 µM, an IC50 (WiDr) of 5.9 µM and an IC50 [1] of 8.8 µM. It also gave an IC50 (RPMI-8226 [3]) of 6.26 µM.
`OCCCNCc1c2ccccc2c(CNCCCO)c2ccccc12` showed an IC50 [1] of 18.2 µM.
Compound `CNCCN(C)Cc1c2ccccc2c(CN(C)CCNC)c2ccccc12` has an IC50 (WiDr) of 1.93 µM, an IC50 [1] of 3.42 µM and an IC50 (RPMI-8226 [3]) of 3.51 µM.
Compound `C(=N\NC1=NCCN1)/c1c2ccccc2c(/C=N/NC2=NCCN2)c2ccccc12` [BISANTRENE] has an inhibition at 0.1 µg/mL (RPMI-8226 [16]) of 21%, an inhibition at 10 µg/mL (L1210 [17]) of 96.1% and an inhibition at 0.1 µg/mL (L1210 [18]) of 5.6%. For the same compound, the IC50 [2] was 0.38 µM, the inhibition at 0.1 µg/mL (RPMI-8226 [19]) was 20.2% and the inhibition at 0.01 µg/mL (L1210 [20]) was 0%. The inhibition at 0.1 µg/mL (L1210 [21]) was 9.3%, the inhibition at 1 µg/mL (L1210 [22]) was 21.7% and the inhibition at 0.1 µg/mL (RPMI-8226 [23]) was 33.3%. The inhibition at 10 µg/mL (L1210 [24]) was 66.8%, the inhibition at 1 µg/mL (L1210 [25]) was 48.5% and the IC50 (WiDr) was 0.44 µM. The IC50 [1] was 2.4 µM, the inhibition at 0.01 µg/mL (RPMI-8226 [26]) was 0% and the inhibition at 10 µg/mL (RPMI-8226 [27]) was 63.5%. It also gave an inhibition at 10 µg/mL (L1210 [28]) of 89%, an inhibition at 1 µg/mL (RPMI-8226 [29]) of 41.9% and an inhibition at 0.1 µg/mL (L1210 [30]) of 24.1%. It also gave an inhibition at 0.01 µg/mL (L1210 [31]) of 0%, an inhibition at 1 µg/mL (RPMI-8226 [32]) of 91.6% and an inhibition at 10 µg/mL (RPMI-8226 [33]) of 92.9%. The inhibition at 0.01 µg/mL (RPMI-8226 [34]) was 0%, the inhibition at 1 µg/mL (L1210 [35]) was 43.6% and the IC50 (RPMI-8226 [3]) was 0.23 µM. It also gave an inhibition at 10 µg/mL (RPMI-8226 [36]) of 97.7%, an inhibition at 1 µg/mL (RPMI-8226 [37]) of 79.9% and an inhibition at 0.01 µg/mL (L1210 [38]) of 1.8%. It also gave an inhibition at 0.01 µg/mL (RPMI-8226 [39]) of 0%.
